Marks after values point to notes of the source that are not given here.

From patent US20050069907A1, “Methods for using double-mutant RNA polymerases with reduced discrimination between non-canonical and canonical nucleoside triphosphates” (priority 2002, published 2005) come the findings set out here.

For one assay, the system named is HindIII-cut pT75. Briefly: Run-off transcription with 2′-OMe- or 2′-azido-NTPs on HindIII-cut pT75. It counts as biochemical. As to conditions: for Reduction of run-off transcript synthesis: 2′-OMe-UTP; for Reduction of run-off transcript yields relative to 4 NTPs: 2′-azido-UTP. The method, then:
RNAPs were prepared as described (Brieba, L G, and Sousa, R. Biochemistry, 39: 919-923, 2000). Transcription reactions were carried out for 30 min. at room temperature in 40 mM Tris-Cl, pH 8.0, 6 mM MgCl2, 10 mM NaCl, 2 mM spermidine, with templates at 10^−7 M and RNAPs at 2×10^−7 M. All NTPs were used at 0.5 mM, and transcripts were labeled by inclusion of 1% v/v 800 Ci/mM […] in the reaction. Modified NTPs were from Trilink Biotechnologies. Reactions were stopped by addition of an equal volume of 90% formamide, 50 mM EDTA, 0.01% xylene cyanol, resolved by electrophoresis in 20% acrylamide, 1% bis-acrylamide, 1×TBE gels, and visualized on a Molecular Dynamics Phosphorimager.
With the pPK5 template, UMP and CMP are not incorporated into the first 9 nt of RNA. Incorporation of non-canonical NMPs during synthesis of the first 9 nt of RNA is expected to cause greater reductions in run-off transcript synthesis because the RNA is readily released from the transcription complex during this initial phase of transcription. Therefore, if incorporation of a non-canonical NMP is slow, the RNA will usually dissociate before the NMP is incorporated. […] To see whether NMPs with bulky 2′-substituents could be incorporated during the initial phase of transcription a Hind-III linearized pT75 (Tabor, S. and Richardson, C. C., “A bacteriophage T7 RNA polymerase/promoter system for controlled exclusive expression of specific genes,” Proc. Natl. Acad. Sci. USA 82:1074-1078, 1985) was used. On this template, UMP is first incorporated at +14 while CMP is incorporated at +6 and +7. In reactions with 2′-OMe-UTP run-off transcript synthesis is reduced 11-fold, 5-fold, and <2-fold with the wild-type, and the Y639F, and Y639F/H784A mutants, respectively (FIG. 2c; lanes 2, 6, 10). However, in reactions with 2′-OMe-CTP run-off transcription is undetectable with the wild-type or Y639F enzymes (FIG. 2c; lanes 3, 4, 7, 8), and is reduced ˜700-fold with Y639F/H784A (FIG. 2c; lanes 11, 12).
Run-off transcript yields in reactions with HindIII-cut pT75 and 2′-azido-UTP are reduced 18-, 8.5-, and <2-fold with wild-type and Y639F and Y639F/H784 mutants, respectively (FIG. 2d; lanes 2, 6, 10), relative to reactions with 4 NTPs (FIG. 2d; lanes 1, 5, 9). In reactions with 2′-azido-CTP, or both 2′-azido-CTP and 2′-azido-UTP, run-off transcription is undetectable with the wild-type enzyme (FIG. 2d; lanes 3, 4), is reduced 65-fold with Y639F (FIG. 2d; lanes 7, 8), but is reduced only 7-fold with Y639F/H784A (FIG. 2d; lanes 11, 12).

The next assay concerns supercoiled pT75. Briefly: rNTP/dNTP selectivity assay: labeled rNTP vs dNTP incorporation with 4 unlabeled rNTPs. It counts as biochemical. On the procedure: Transcription reactions: Transcription reactions were carried out in 40 mM Tris-Cl pH 8.0, 15 mM MgCl2, and 5 mM DTT or 20 mM Manganese Citrate pH 8.0, 5 mM DTT at 37° C. Template, polymerase, and NTP concentrations were as indicated in the legends to the figures and tables. Relative activity determinations were made by taking 4 μl aliquots of reactions at 5, 10, and 20 minute time points and spotting on to DE81 filter paper. Unincorporated nucleotides were separated from incorporated nucleotides by washing the filter paper with 0.5 M KH2PO4 pH 7.0 and retained radioactive nucleotide was quantitated with a Molecular Dynamics phosphorimager. To evaluate rNTP/dNTP selectivity, reactions were run with 4 rNTPs and pT75 as template and α-P^32 rNTPs or α-P^32 dNTPs were used to label the transcripts. The relative rate of incorporation of an rNTP vs. its cognate dNTP was determined from the relative percentages of labeled rNTP vs. dNTP incorporated into DE81 retainable RNA at 5, 10, and 20 minute time points. Apparent miscoding frequencies were determined similarly, though in this instance the template was a single-stranded homopolymer and the reaction contained the complementary unlabeled rNTP, and complementary α-P^32 rNTP or one of the 3 non-complementary α-P^32 rNTPs. The relative percentages of labeled complementary vs. non-complementary rNTPs incorporated at 5, 10 and 20 minute time points gave an apparent miscoding rate. The rNTP/dNTP selectivity assay was used to test the following T7 RNAP mutants for effects on substrate discrimination: D537S, D537E, S539A, R5S1S, D552S, R627S, K631S, L637A, Y639S, Y639F, Y639A, G640A, F644A, G645A, Q649S, […], H811S, H811A, D812A, D812E, D812S, D812N, D879E+ΔF882+ΔA883, D879E+A881T+ΔA883, D879E+F884+A885, D879E+F882Y, D879E+ΔA883, D879E+F882W, D879E.
Relative selectivity of the mutant and W.T. polymerases for dNTPs and rNTPs: FIGS. 1-3 present a qualitative analysis of the structure of the transcripts produced by the W.T. and Y639F polymerases with various combinations of NTPs. […] To obtain a quantitative measure of the relative selectivity of the W.T. and mutant polymerases for dNTPs vs. rNTPs under conditions where transcript structure was not a complicating factor, reactions were carried out in which all 4 rNTPs were present but rNTPs or dNTPs were used to radiolabel the transcripts (see Table I).
Under these conditions the unlabeled rNTPs were present in vast excess relative to the labeling NTPs so labeling dNTPs are almost always incorporated adjacent to rNTPs and into transcripts of nearly uniform rNMP structure. […] This assay was used to screen our collection of T7 RNAP active site mutants for increased dNTP utilization. In this screen dATP incorporation in transcription reactions was examined with all of these mutants using supercoiled pT75 as the template, 4 cold rNTPs, and P32-rATP or P32-dATP to label. […] It has been reported that use of Mn^2+ instead of Mg^2+ decreases substrate discrimination and increases miscoding for a number of polymerases (Tabor and Richardson, 1989; Nivogi and Feldman, 1981). Therefore, the rNTP/dNTP selectivity of the mutant and W.T. enzymes were examined in Mn^2+-citrate buffer (Tabor and Richardson, 1989).

Where [1] appears, read: 2′-azido-CTP, or both 2′-azido-CTP and 2′-azido-UTP.
Where [2] appears, read: Mg^2+ buffer, range of 2 experiments.

On to “W.T.: wild-type T7 RNA polymerase [reference compound]”, for which, in the assay with HindIII-cut pT75 (2′-OMe-CTP), the “Reduction of run-off transcription” value is recorded as “undetectable”. Further, in the assay on HindIII-cut pT75, the “Reduction of run-off transcript synthesis” value amounted to 11 fold and the “Reduction of run-off transcript yields relative to 4 NTPs” value was 18 fold. Also, the “Reduction of run-off transcription” value with HindIII-cut pT75 (setting [1]) was “undetectable”. Further, in the assay with supercoiled pT75 (Mg^2+ buffer), the “Relative selectivity rCTP/dCTP” value was 110-150, the “Relative selectivity rGTP/dGTP” value is recorded as 51-67 and the “Relative selectivity rUTP/dTTP” value was 22-25. Also, the “Relative selectivity rATP/dATP” value in the assay on supercoiled pT75 (setting [2]) is recorded as 72-83 (Mg)*. Moreover, in the assay with supercoiled pT75 (Mn^2+ buffer), the “Relative selectivity rATP/dATP” value is 6-14 (Mn)*, the “Relative selectivity rCTP/dCTP” value was 4.3-5.1, the “Relative selectivity rGTP/dGTP” value was 4.4-6.3 and the “Relative selectivity rUTP/dTTP” value is recorded as 2.3-2.8.

For the substance “Y639F: T7 RNAP with wild-type tyrosine at position 639 substituted by phenylalanine”, the “Reduction of run-off transcription” value with HindIII-cut pT75 (2′-OMe-CTP) is “undetectable”. For the same substance, in the assay with HindIII-cut pT75, the “Reduction of run-off transcript synthesis” value came out at 5 fold and the “Reduction of run-off transcript yields relative to 4 NTPs” value turned out to be 8.5 fold. The “Reduction of run-off transcription” value in the assay with HindIII-cut pT75 (setting [1]) was 65 fold. In addition, the “Reduction in selectivity for rNTPs over dNTPs relative to W.T., on average” value with supercoiled pT75 is recorded as around 20 fold. For the same substance, in the assay on supercoiled pT75 (Mg^2+ buffer), the “Relative selectivity rCTP/dCTP” value is listed as 2.4-2.5, the “Relative selectivity rGTP/dGTP” value is given as “.93-1.6” and the “Relative selectivity rUTP/dTTP” value was 1.7-1.9. For the same substance, the “Relative selectivity rATP/dATP” value with supercoiled pT75 (setting [2]) is reported as 8.5-10 (Mg)*. In addition, in the assay with supercoiled pT75 (Mn^2+ buffer), the “Relative selectivity rATP/dATP” value was “.9-1.0 (Mn)*”, the “Relative selectivity rCTP/dCTP” value was “.55-.80”, the “Relative selectivity rGTP/dGTP” value was “.98-.99” and the “Relative selectivity rUTP/dTTP” value is given as “.48-.76”.
